In patent US12594276B2, “Inhibitors of human immunodeficiency virus replication” (ViiV Healthcare UK (No.5) Limited, priority 2024, dated 2026):

Experiments:
[1] = Compound cytotoxicity, XTT-based colorimetric assay; format: cell-based; details: human; uninfected MT2 cells, day 4, XTT; read-out: CC50
How it was run: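 Uninfected MT2 cells were treated with compound under the same protocol as the antiviral assay. Viability was read on day 4 with an XTT colorimetric assay, from which CC50 values were derived.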

[2] = test system: recombinant NL4-3 virus (nef section replaced with Renilla luciferase gene) in MT-2 cells; assay: HIV cell culture assay (antiviral activity, luciferase readout); format: cell-based; details: Renilla, NL43, MT-2 cells infected for 4-5 days with recombinant NL4-3 Renilla luciferase virus
How it was run: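 EC50 was derived by median-effect fitting of Renilla luciferase signal from MT-2 cells. These cells were infected for 4–5 days with NL4-3 reporter virus (nef partly replaced by luciferase; made in 293T cells) in the presence of serially diluted compound. Activity was quantified with a live-cell luciferase substrate.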

| SMILES | CC50 at 4 days [1] [nM] | EC50 [2] [nM] |
| --- | --- | --- |
| CC(C)[C@H]1CN(CCn2nc(NS(C)(=O)=O)c3c(Cl)ccc(-n4c([C@H](Cc5cc(F)cc(F)c5)NC(=O)Cn5nc(C6CC6)c6c5C[C@@H]5C[C@H]65)nc5nc(C6CCC(F)(F)CC6)ccc5c4=O)c32)CCO1 (atropisomer, axis not shown; (P)) [Example 434, N-[(1S)-1-[(3P)-3-(4-chloro-3-methanesulfonamido-1-{2-[(2S)-2-(propan-2-yl)morpholin-4-yl]ethyl}-1H-indazol-7-yl)-7-(4,4-difluorocyclohexyl)-4-oxo-3H,4H-pyrido[2,3-d]pyrimidin-2-yl]-2-(3,5-difluorophenyl)ethyl]-2-[(2S,4S)-9-cyclopropyl-7,8-diazatricyclo[4.3.0.0^2,^4]nona-1(6),8-dien-7-yl]acetamide] | > 20 | 0.01 |
| CC(C)[C@@H]1CN(CCn2nc(NS(C)(=O)=O)c3c(Cl)ccc(-n4c([C@H](Cc5cc(F)cc(F)c5)NC(=O)Cn5nc(C6CC6)c6c5C[C@@H]5C[C@H]65)nc5nc(C6CCC(F)(F)CC6)ccc5c4=O)c32)CCO1 (atropisomer, axis not shown; (P)) [Example 435, N-[(1S)-1-[(3P)-3-(4-chloro-3-methanesulfonamido-1-{2-[(2R)-2-(propan-2-yl)morpholin-4-yl]ethyl}-1H-indazol-7-yl)-7-(4,4-difluorocyclohexyl)-4-oxo-3H,4H-pyrido[2,3-d]pyrimidin-2-yl]-2-(3,5-difluorophenyl)ethyl]-2-[(2S,4S)-9-cyclopropyl-7,8-diazatricyclo[4.3.0.0^2,^4]nona-1(6),8-dien-7-yl]acetamide] | > 20 | 0.009 |
| Cc1cc(C2CCC(F)(F)CC2)nc2nc([C@H](Cc3cc(F)cc(F)c3)NC(=O)Cn3nc(C4CC4)c4c3C[C@@H]3C[C@H]43)n(-c3ccc(Cl)c4c(NS(C)(=O)=O)nn(CCN5C[C@@H](F)C[C@H](F)C5)c34)c(=O)c12 (atropisomer, axis not shown; (P)) [Example 444, N-[(1S)-1-[(3P)-3-(4-chloro-1-{2-[(3S,5S)-3,5-difluoropiperidin-1-yl]ethyl}-3-methanesulfonamido-1H-indazol-7-yl)-7-(4,4-difluorocyclohexyl)-5-methyl-4-oxo-3H,4H-pyrido[2,3-d]pyrimidin-2-yl]-2-(3,5-difluorophenyl)ethyl]-2-[(2S,4S)-9-cyclopropyl-7,8-diazatricyclo[4.3.0.0^2,^4]nona-1(6),8-dien-7-yl]acetamide] | > 20 | 0.009 |
| Cc1cc(C2CCC(F)(F)CC2)nc2nc([C@H](Cc3cc(F)cc(F)c3)NC(=O)Cn3nc(C4CC4)c4c3C[C@@H]3C[C@H]43)n(-c3ccc(Cl)c4c(NS(C)(=O)=O)nn(CCN5CC6(CCC6)OC6(CCC6)C5)c34)c(=O)c12 (atropisomer, axis not shown; (P)) [Example 445, N-[(1S)-1-[(3P)-3-[4-chloro-3-methanesulfonamido-1-(2-{5-oxa-11-azadispiro[3.1.3^6.3^4]dodecan-11-yl}ethyl)-1H-indazol-7-yl]-7-(4,4-difluorocyclohexyl)-5-methyl-4-oxo-3H,4H-pyrido[2,3-d]pyrimidin-2-yl]-2-(3,5-difluorophenyl)ethyl]-2-[(2S,4S)-9-cyclopropyl-7,8-diazatricyclo[4.3.0.0^2,^4]nona-1(6),8-dien-7-yl]acetamide] | > 20 | 0.015 |
| Cc1cc(C2CCC(F)(F)CC2)nc2nc([C@H](Cc3cc(F)cc(F)c3)NC(=O)Cn3nc(C(F)F)c4c3C(F)(F)[C@@H]3C[C@H]43)n(-c3ccc(Cl)c4c(NS(C)(=O)=O)nn(CCN5C[C@@H](F)C[C@H](F)C5)c34)c(=O)c12 (atropisomer, axis not shown; (P)) [Example 446, N-[(1S)-1-[(3P)-3-(4-chloro-1-{2-[(3S,5S)-3,5-difluoropiperidin-1-yl]ethyl}-3-methanesulfonamido-1H-indazol-7-yl)-7-(4,4-difluorocyclohexyl)-5-methyl-4-oxo-3H,4H-pyrido[2,3-d]pyrimidin-2-yl]-2-(3,5-difluorophenyl)ethyl]-2-[(2S,4R)-9-(difluoromethyl)-5,5-difluoro-7,8-diazatricyclo[4.3.0.0^2,^4]nona-1(6),8-dien-7-yl]acetamide] | > 20 | 0.009 |
| COCCCn1nc(NS(C)(=O)=O)c2c(Cl)ccc(-n3c([C@H](Cc4cc(F)cc(F)c4)NC(=O)Cn4nc(C(F)F)c5c4C(F)(F)[C@@H]4C[C@H]54)nc4nc(C5CCC(F)(F)CC5)cc(CN5C[C@@H](C)O[C@@H](C)C5)c4c3=O)c21 (atropisomer, axis not shown; (P)) [Example 448, N-[(1S)-1-[(3P)-3-[4-chloro-3-methanesulfonamido-1-(3-methoxypropyl)-1H-indazol-7-yl]-7-(4,4-difluorocyclohexyl)-5-{[(2R,6S)-2,6-dimethylmorpholin-4-yl]methyl}-4-oxo-3H,4H-pyrido[2,3-d]pyrimidin-2-yl]-2-(3,5-difluorophenyl)ethyl]-2-[(2S,4R)-9-(difluoromethyl)-5,5-difluoro-7,8-diazatricyclo[4.3.0.0^2,4]nona-1(6),8-dien-7-yl]acetamide] | > 20 | 0.009 |
| COCCCn1nc(NS(C)(=O)=O)c2c(Cl)ccc(-n3c([C@H](Cc4cc(F)cc(F)c4)NC(=O)Cn4nc(C(F)F)c5c4C(F)(F)[C@@H]4C[C@H]54)nc4nc(C5CCC(F)(F)CC5)cc(CF)c4c3=O)c21 (atropisomer, axis not shown; (P)) [Example 449, N-[(1S)-1-[(3P)-3-[4-chloro-3-methanesulfonamido-1-(3-methoxypropyl)-1H-indazol-7-yl]-7-(4,4-difluorocyclohexyl)-5-(fluoromethyl)-4-oxo-3H,4H-pyrido[2,3-d]pyrimidin-2-yl]-2-(3,5-difluorophenyl)ethyl]-2-[(2S,4R)-9-(difluoromethyl)-5,5-difluoro-7,8-diazatricyclo[4.3.0.0^2,4]nona-1(6),8-dien-7-yl]acetamide] | > 20 | 0.009 |
| Cc1cc(C2CCC(F)(F)CC2)nc2nc([C@H](Cc3cc(F)cc(F)c3)NC(=O)Cn3nc(C(F)F)c4c3C(F)(F)[C@@H]3C[C@H]43)n(-c3ccc(Cl)c4c(NS(C)(=O)=O)nn(CCN5C[C@@H](C)OC(C)(C)C5)c34)c(=O)c12 (atropisomer, axis not shown; (P)) [Example 454, N-[(1S)-1-[(3P)-3-(4-chloro-3-methanesulfonamido-1-{2-[(6R)-2,2,6-trimethylmorpholin-4-yl]ethyl}-1H-indazol-7-yl)-7-(4,4-difluorocyclohexyl)-5-methyl-4-oxo-3H, 4H-pyrido[2,3-d]pyrimidin-2-yl]-2-(3,5-difluorophenyl)ethyl]-2-[(2S,4R)-9-(difluoromethyl)-5,5-difluoro-7,8-diazatricyclo[4.3.0.0^2,^4]nona-1(6),8-dien-7-yl]acetamide] | > 20 | 0.01 |
